ChEMBL document CHEMBL3885881, “DrugMatrix”

Species: Rattus norvegicus
Experiment: DrugMatrix - Regimen: Daily Repeat
Format: toxicity, organism-based, Sprague-Dawley
Set-up: regimen Daily Repeat, gender Male, age 6-8 weeks
Settings: in vivo, po, route oral GAVAGE, vehicle .5 % CMC; for ABSOLUTE BASOPHIL / ABSOLUTE EOSINOPHIL / ABSOLUTE LYMPHOCYTE / ABSOLUTE MONOCYTE / ABSOLUTE SEGMENTED NEUTROPHIL / BASOPHIL / EOSINOPHIL / ERYTHROCYTE COUNT / HEMATOCRIT / HEMOGLOBIN / LEUKOCYTE COUNT / LYMPHOCYTE / MEAN CORPUSCULAR HEMOGLOBIN / MEAN CORPUSCULAR HEMOGLOBIN CONCENTRATION / MEAN CORPUSCULAR VOLUME / MONOCYTE / NEUTROPHIL / NUCLEATED RED BLOOD CELLS / PLATELET COUNT: tissue Blood; for ALANINE AMINOTRANSFERASE / ALBUMIN / ALKALINE PHOSPHATASE / ASPARTATE AMINOTRANSFERASE / BLOOD UREA NITROGEN / CARBON DIOXIDE / CHLORIDE / CHOLESTEROL / CREATINE PHOSPHOKINASE / CREATININE / GLUCOSE / LACTATE DEHYDROGENASE / LIPASE / PHOSPHORUS / POTASSIUM / SODIUM / TOTAL BILIRUBIN / TOTAL PROTEIN / URIC ACID: tissue Plasma
[1] = 0 mg/kg, 72 h, dose level Control, time 3 day
[2] = 0 mg/kg, 120 h, dose level Control, time 5 day
[3] = 200 mg/kg, 72 h, dose level Low, time 3 day

## Cc1cnc(C(=O)NCCc2ccc(S(=O)(=O)NC(=O)NC3CCCCC3)cc2)cn1 [GLIPIZIDE]
[1]
  ABSOLUTE BASOPHIL: 0 CELLS/uL
  ABSOLUTE EOSINOPHIL: 0 CELLS/uL
  ABSOLUTE LYMPHOCYTE: 12191.17 CELLS/uL
  ABSOLUTE MONOCYTE: 183.17 CELLS/uL
  ABSOLUTE SEGMENTED NEUTROPHIL: 1192.33 CELLS/uL
  BASOPHIL: 0%
  EOSINOPHIL: 0%
  ERYTHROCYTE COUNT: 5.51 x10E6/uL
  HEMATOCRIT: 35.45%
  HEMOGLOBIN: 13.82 G/DL
  LEUKOCYTE COUNT: 13.57 x10E3/uL
  LYMPHOCYTE: 89.83%
  MEAN CORPUSCULAR HEMOGLOBIN: 25.1 pg
  MEAN CORPUSCULAR HEMOGLOBIN CONCENTRATION: 38.98 G/DL
  MEAN CORPUSCULAR VOLUME: 64.42 fL
  MONOCYTE: 1.33%
  NEUTROPHIL: 8.83%
  NUCLEATED RED BLOOD CELLS: 0 /100WBC
  PLATELET COUNT: 1118.17 x10E3/uL
  ALANINE AMINOTRANSFERASE: 55 u/L
  ALBUMIN: 4.15 G/DL
  ALKALINE PHOSPHATASE: 449.5 u/L
  ASPARTATE AMINOTRANSFERASE: 112.83 u/L
  BLOOD UREA NITROGEN: 17.33 mg/dL
  CARBON DIOXIDE: 29.5 mmol/L
  CHLORIDE: 101 MEQ/L
  CHOLESTEROL: 70 mg/dL
  CREATINE PHOSPHOKINASE: 1325.83 u/L
  CREATININE: 0.18 mg/dL
  GLUCOSE: 171.5 mg/dL
  LACTATE DEHYDROGENASE: 386 u/L
  LIPASE: 10 u/L
  PHOSPHORUS: 11.57 mg/dL
  POTASSIUM: 6.21 MEQ/L
  SODIUM: 141.65 MEQ/L
  TOTAL BILIRUBIN: 0.15 mg/dL
  TOTAL PROTEIN: 5.75 G/DL
  URIC ACID: 1.28 mg/dL
[2]
  ABSOLUTE BASOPHIL: 0 CELLS/uL
  ABSOLUTE EOSINOPHIL: 138.17 CELLS/uL
  ABSOLUTE LYMPHOCYTE: 13283.17 CELLS/uL
  ABSOLUTE MONOCYTE: 303.83 CELLS/uL
  ABSOLUTE SEGMENTED NEUTROPHIL: 1308.17 CELLS/uL
  BASOPHIL: 0%
  EOSINOPHIL: 1%
  ERYTHROCYTE COUNT: 5.32 x10E6/uL
  HEMATOCRIT: 33.8%
  HEMOGLOBIN: 13.63 G/DL
  LEUKOCYTE COUNT: 15.03 x10E3/uL
  LYMPHOCYTE: 88.33%
  MEAN CORPUSCULAR HEMOGLOBIN: 25.68 pg
  MEAN CORPUSCULAR HEMOGLOBIN CONCENTRATION: 40.35 G/DL
  MEAN CORPUSCULAR VOLUME: 63.67 fL
  MONOCYTE: 1.83%
  NEUTROPHIL: 8.83%
  NUCLEATED RED BLOOD CELLS: 0 /100WBC
  PLATELET COUNT: 1097.5 x10E3/uL
  ALANINE AMINOTRANSFERASE: 54.5 u/L
  ALBUMIN: 4.27 G/DL
  ALKALINE PHOSPHATASE: 337 u/L
  ASPARTATE AMINOTRANSFERASE: 94.67 u/L
  BLOOD UREA NITROGEN: 17 mg/dL
  CARBON DIOXIDE: 28.33 mmol/L
  CHLORIDE: 101.5 MEQ/L
  CHOLESTEROL: 71.33 mg/dL
  CREATINE PHOSPHOKINASE: 628.17 u/L
  CREATININE: 0.19 mg/dL
  GLUCOSE: 177.83 mg/dL
  LACTATE DEHYDROGENASE: 500.5 u/L
  LIPASE: 9.5 u/L
  PHOSPHORUS: 12.3 mg/dL
  POTASSIUM: 5.63 MEQ/L
  SODIUM: 143.03 MEQ/L
  TOTAL BILIRUBIN: 0.2 mg/dL
  TOTAL PROTEIN: 6.02 G/DL
  URIC ACID: 1.5 mg/dL
[3]
  ABSOLUTE BASOPHIL: 0 CELLS/uL
  ABSOLUTE EOSINOPHIL: 38 CELLS/uL
  ABSOLUTE LYMPHOCYTE: 11413.33 CELLS/uL
  ABSOLUTE MONOCYTE: 0 CELLS/uL
  ABSOLUTE SEGMENTED NEUTROPHIL: 882 CELLS/uL
  BASOPHIL: 0%
  EOSINOPHIL: 0.33%
  ERYTHROCYTE COUNT: 5.65 x10E6/uL
  HEMATOCRIT: 34.83%
  HEMOGLOBIN: 13.93 G/DL
  LEUKOCYTE COUNT: 12.33 x10E3/uL
  LYMPHOCYTE: 92.67%
  MEAN CORPUSCULAR HEMOGLOBIN: 24.63 pg
  MEAN CORPUSCULAR HEMOGLOBIN CONCENTRATION: 40 G/DL
  MEAN CORPUSCULAR VOLUME: 61.63 fL
  MONOCYTE: 0%
  NEUTROPHIL: 7%
  NUCLEATED RED BLOOD CELLS: 0 /100WBC
  PLATELET COUNT: 1245 x10E3/uL
  ALANINE AMINOTRANSFERASE: 51.33 u/L
  ALBUMIN: 4.23 G/DL
  ALKALINE PHOSPHATASE: 334.33 u/L
  ASPARTATE AMINOTRANSFERASE: 84.33 u/L
  BLOOD UREA NITROGEN: 15.33 mg/dL
  CARBON DIOXIDE: 27.33 mmol/L
  CHLORIDE: 103.33 MEQ/L
  CHOLESTEROL: 74.33 mg/dL
  CREATINE PHOSPHOKINASE: 335 u/L
  CREATININE: 0.13 mg/dL
  GLUCOSE: 133.67 mg/dL
  LACTATE DEHYDROGENASE: 97.33 u/L
  LIPASE: 10.33 u/L
  PHOSPHORUS: 11.7 mg/dL
  POTASSIUM: 5.79 MEQ/L
  SODIUM: 143.47 MEQ/L
  TOTAL BILIRUBIN: 0.13 mg/dL
  TOTAL PROTEIN: 5.77 G/DL
  URIC ACID: 1.43 mg/dL
